Values of other authors, collected in US20060222709A1 (AGI Therapeutics Research Ltd., priority 2005, published 2006).

Tests used:
[1] = system: patients with chronic constipation; conditions: two trials
[2] = system: women patients with IBS-C; conditions: 6 mg twice daily

Structure (SMILES): OC[C@H]1O[C@@H](O[C@@H]2[C@@H](CO)OC(O)(CO)[C@H]2O)[C@H](O)[C@@H](O)[C@H]1O (mixture of isomers) [lactulose]
- stool frequency and consistency versus placebo [1]: more effective than placebo

Structure (SMILES): CN(C)C(=N)N=C(N)N [metformin, dimethylbiguanide]
- acute, reversible adverse effects, mainly of gastrointestinal tract origin, patients affected (human, in vivo): up to 20%
- prevalence of diarrhea (treated diabetes patients (Bytzer 2001)): 20%

Structure (SMILES): CCCCCNC(=N)N/N=C/c1c[nH]c2ccc(OC)cc12.O=C(O)/C=C\C(=O)O [tegaserod, 3-(5-methoxy-1H-indol-3-ylmethylene)-N-pentylcarbazimidamide hydrogen maleate]
- global and individual symptoms [2]: effectively improves global and individual symptoms
